Results reported in a melting point compilation (Tetko et al.; mined from patent text by program, amines drawn as free bases though some values may be those of a salt).

| SMILES | melting point [°C] |
| --- | --- |
| O=S(=O)(c1ccc(-c2ccc(C3COC(c4c(F)cccc4F)=N3)cc2)cc1)C(F)F (stereo unspecified) | 107 to 111 |
| O=C(Nc1ccc(Oc2ccnc(N3CCCC3)n2)c2ccccc12)c1ccccc1N1CCCC(F)C1 (stereo unspecified) | 111 to 113 |
| FCc1ccc(-c2cn([C@H]3CN4CCC3CC4)nn2)cc1 | 138 |
| CCC12CCC3C4CCC(=O)C=C4CC(C)C3C1CCC2O (stereo unspecified) | 152 to 154 |
| CC(C)(C)Nc1c(Nc2cnc3ccccc3c2)c(=O)c1=O | 257 to 260 |
| O=[N+]([O-])c1cc(CCl)ccc1OCc1ccccc1 | 60 to 61 |
| CCCC(C)(Oc1ccccc1)C(=O)OC1CC(O)C=C2C=CC(C)C(CCC3CC(O)CC(=O)O3)C21 (mixture of isomers) | 151 to 153 |
| CCCc1c(OCCCCc2ccc3cc(O)c(O)cc3c2)ccc(C(=O)O)c1O | 173 to 175 |
| COc1ccc(-c2cc(-c3ccc(F)cc3)c3c(=O)n(C)c(=O)n(C)c3n2)cc1 | 240 to 243 |
| CN(Cc1ccccc1)c1ccc(C(=O)c2ccccc2)cc1N | 93 to 94 |
| CC(C)(C)OC(=O)NC(Cc1ccc(OCc2ccccc2)cn1)C(=O)NCc1ccc(C(=O)NO)cc1 (stereo unspecified) | 106 to 108 |
| COC(=O)c1c([N+](=O)[O-])cc(OC)c(OC)c1OC | 74 to 76 |
| CC(C)(C)OC(=O)NCC1CCN(Cc2ccccc2)C1 (stereo unspecified) | 51 to 54 |
| COc1cc(CO)c(OC)c(CCl)c1 | 48 to 50 |
| CCOC(=O)C1=C(C)N=C(SCc2ccc(OC)cc2)N(C(=O)OCC)C1c1ccccc1SC (stereo unspecified) | 87 to 89 |
| COC(=O)C1(C)CN(C(=O)Nc2ccc(C(F)(F)F)cc2)N=C1c1ccc(Cl)cc1 (stereo unspecified) | 143 to 146 |
| O=C(O)CN1CC2(CCCCC2)CC1=O | 122 to 124 |
| COc1cc(CC(=O)Nc2ccc(C3CN(C(C)=O)CC3C(=O)O)cc2)ccc1NC(=O)Nc1ccccc1C (stereo unspecified) | 242 |
| COC(=O)c1cc(C(=O)c2ncc3ccccn23)ccc1N | 192 |
| Brc1ccc2c(CCN3CCCCC3)c(-c3ccccc3)[nH]c2c1 | > 230 |
| Nc1ccc(Sc2nnc3ccc(-c4ccc(F)cc4)cn23)cc1 | 217 |
| CC(C)n1nc(-c2nc(C3=CCCN(C)C3)c(N)nc2-c2ccccc2)ccc1=O | 191 to 193 |
| CN1CCCC(OC(=O)Nc2ccc(Br)cc2)C1 (stereo unspecified) | 127 |
| O=[N+]([O-])c1c(Nc2ccc3[nH]ccc3c2)ncnc1-c1ccc(C(F)(F)F)cc1F | 147 to 149 |
| C=CCc1c(OC(C)=O)cc(C)c2c(C)cc(=O)oc12 | 166 |
| CCC(O)c1cc2c(cc1C)OCO2 (stereo unspecified) | 71 to 72 |
| Fc1ccc(-c2coc(-c3cn([C@H]4CN5CCC4CC5)nn3)c2)cn1 | 210 |
| CCOC(=O)C1(c2ccccc2)CCN(c2ncccn2)CC1 | 119 to 120 |

| SMILES | melting point [°C] |
| --- | --- |
| OC(c1ccc2c(c1)CCN2)(C(F)(F)F)C(F)(F)F | 161 to 162 |
| N=C(Nc1cc(Cl)cc(NC(=O)/C=C/c2ccccc2C(F)(F)F)c1)c1cccs1 | 178 to 179 |
| Cn1ccnc1SCC(=O)Nc1ccc(-c2ccccc2)cc1 | 151 to 154 |
| CCOCc1nc2c(N)nc3ccccc3c2n1CCCCCS(=O)(=O)NCc1ccc(OC)cc1 | 177 to 178 |
| O=C(NCCC1CC1)c1ccc(N2CCN(C(=S)c3ccccc3C(F)(F)F)CC2)nn1 | 117 to 120 |
| COP(=S)(OC)Oc1cc(-c2ccccc2)sc1C#N | 95 |
| CCOn1nnnc1SC[PH](=O)O | 120 to 122 |
| O=C(O)c1ccc(C23CC4CC(C2)CC(c2ccc(C(=O)O)cc2)(C4)C3)cc1 | 304 to 306 |
| C=C1CCC2C3CCC4=CC(=O)CCC4C3CCC12C (stereo unspecified) | 83 to 89 |
| COc1cccc(C2OC(=O)CC2C(=O)O)c1OC (stereo unspecified) | 129 to 130 |
| COc1cc(C)c(C(=O)c2c(OC)cnc(Cl)c2Cl)c(OC)c1OC | 98 to 99 |
| O=c1ccoc(CO)c1O | 154 to 156 |
| O=C(O)C1=Cc2ccc(-c3ccccc3)cc2OC1C(F)(F)F (stereo unspecified) | 209 to 212 |
| O=C(Cc1ccccc1)NC1C(=O)N2CC(C(=O)OCc3ccccc3)SC12 (stereo unspecified) | 130 to 132 |
| N#Cc1cnc2sc(-c3ccc(CN)cc3)cc2c1Nc1ccc2[nH]ccc2c1 | > 260 |
| Cc1cn2cccc(CCl)c2n1 | 110 to 112 |
| O=C(O)c1ccc(Cn2nnc(-c3cccc(I)c3)n2)cc1 | 241 to 242 |
| CCCCCNC(=O)N(C)c1ncc(-c2ccc(C[C@H](OCC)C(=O)O)cc2)s1 | 114 |
| COc1nc(OC)nc(SC(C(=O)O)C(C)(C)c2ccccc2)n1 (stereo unspecified) | 115 to 118 |
| CSc1cc(SC)c2ccc3c(SC)cc(SC)c4ccc1c2c43 | 275 to 280 |
| CCN(CC)CC1CCCCN1C(=O)c1ccc(-c2[nH]nc3c2C(=O)c2c(NC(=O)NN4CCOCC4)cccc2-3)s1 (stereo unspecified) | 210 to 212 |
| CCOC(=O)CCc1cc(C(=O)c2ccc(C(=O)OCC)cc2)ccc1O | 70 to 71 |
| Cc1ccc2c(C=O)c3ccccc3c(C=O)c2c1 | 150 to 152 |
| CC(O)=C(C#N)C(=O)Nc1cc(Br)ccc1Br | 148 to 150 |
| CS(=O)(=O)c1cccc(Cn2ccc(OCc3ccc(F)cc3F)c(Cl)c2=O)c1 | 155 to 157 |
| COc1cc(Nc2c(C#N)cnc3cc(-c4ccc(CNCCS(C)(=O)=O)cc4)ccc23)c(Cl)cc1Cl | 245 to 246 |
| CCC(NC(=O)COc1c(C)cccc1C)C(N)=O (stereo unspecified) | 182 to 184 |

Results, then the compound that gave them:

| melting point [°C] | SMILES |
| --- | --- |
| 183 to 184 | Nc1nc(N)c2ncn(COCCO)c2n1 |
| 127 to 129 | COC(=O)c1cc(S(C)(=O)=O)nc(Cl)n1 |
| 154 to 155 | CCC(CC)Cn1c(=O)c(=O)[nH]c2cc([N+](=O)[O-])c(-n3cccc3)cc21 |
| 165 to 166 | O=C(CC(O)C(F)(F)F)c1cc(Cl)cc(Cl)c1 (stereo unspecified) |
| 140 | COC(=O)c1cc(C(=O)c2cccc(F)c2)ccc1OC |
| 39 to 40 | CCCCCCCCCN(O)C(=O)N(C)C |
| 110 to 117 | Cc1noc(NS(=O)(=O)c2ccccc2-c2ccc(-c3ncco3)cc2CN(C)C(=O)CCc2ccccc2)c1C |
| 64 to 65 | [N-]=[N+]=NCCCn1cnc(-c2ccc(F)cc2)c1-c1ccncc1 |
| 90 to 94 | C[Si](C)(C)Sc1ncn([Si](C)(C)C)n1 |
| 92 to 100 | CN1C(=O)CC[C@]2(C)c3ccc(-c4c(F)c(F)c(F)c(F)c4F)cc3CC[C@@H]12 |
| 137 to 146 | N#CC1=Cc2ccccc2C(N2CCN(N)CC2)c2ccccc21 (stereo unspecified) |
| 225 to 228 | NC(=O)c1ccc(C(F)(F)F)cc1N1CCc2nc(NS(=O)(=O)c3cc(C(F)(F)F)cc(C(F)(F)F)c3)sc2C1 |
| 124 | CCCc1c2c(c3oc(C(=O)OC)cc(=O)c3c1OC)CCCC2 |
| 233 to 234 | CC(=O)SCC(=O)Nc1ccc(C(=O)O)cc1 |
| 248 to 249 | NC(=O)[C@H]1NC(=O)[C@H]1NC(=O)OCc1ccccc1 |
| 167 to 168 | CCOC(=O)CN(C)C1CCCN(C(=O)c2ccc(NC(=O)c3ccccc3C)cc2)c2ccccc21 (stereo unspecified) |
| 192 to 194 | CC(C(=O)O)c1cc(=O)n(Cc2ccc(Cl)cc2)c2ccc(Cl)cc12 (stereo unspecified) |
| 143 | CCOC1(CCC(=O)O)c2cc(C)c(OC(C)=O)cc2Oc2cc(OC(C)=O)c(C)cc21 |
| 167 to 168 | CCCCCc1nc2c(N)nc3c(c2n1CCCCNS(C)(=O)=O)CCCC3 |
| 178 to 180 | O=C(O)CCN1CCN(c2ccc(F)cc2)CC1 |
| 51 to 52 | CCCCCc1sc(C(=O)OCC)nc1-c1ccccc1 |
| 157 to 159 | CC1Cc2cc(S(=O)(=O)n3cc(-c4ccccc4)[nH]c3=O)ccc2N1C(=O)CCl (stereo unspecified) |
| 182 to 187 | COc1cn(-c2ccc(N3CCCC(F)(F)C3)cc2F)nc(-c2ccnn2-c2ccccc2)c1=O |

| melting point [°C] | SMILES |
| --- | --- |
| 62 to 63 | O=c1n(CCCF)nnn1-c1ccc(Cl)cc1F |
| 156 to 158 | CC1(C)CC(=O)N(c2ccc(OC(=O)N3CCc4ccccc4C3)nc2)C(=O)C1 |
| 40 to 41 | CCOC(=O)CCC(=O)c1ccc(OCCCCCBr)c(CCC(=O)OCC)c1 |
| 42 to 44 | CCOC(=O)CC(NC(=O)c1ccc(Cl)cc1)C(=O)C(C)C (stereo unspecified) |
| 116 to 117 | O=C(N1CCNCC1)N1CCC(c2ccncc2)CC1 |
| 137 to 140 | CSc1ccc2c(=O)cc(C(=O)N[C@H]3CCN(C(=O)c4cc(C(F)(F)F)cc(C(F)(F)F)c4)[C@H](Cc4ccc(Cl)cc4)C3)oc2c1 |
| 221 to 225 | Cn1nnn(-c2c(Cl)ccc(C(=O)O)c2Cl)c1=O |
| 110 to 111 | CC(=O)NCC1(N2CCN(C)CC2)CCCCC1 |
| 143 to 145 | O=C(O)Cc1cccc(-c2onc3ccccc23)c1 |
| 135 to 137 | CC(C)(C)OC(=O)c1cc(-c2cccc(F)c2)c(=O)n2c1-c1sccc1CC2 |
| 122 to 125 | CC(C)(CO)Oc1ccc2c(c1)CCc1c-2ccc2c1CCC2(C)C |
| 230 to 232 | COc1cc2nc(N)nc(-c3cccc(CO)c3)c2cc1OC |
| 208 | COc1cc(N)c(Cl)cc1C(=O)N[C@H]1CCN(CCCN2C(=O)c3ccccc3C2=O)C[C@H]1OC (relative stereo) |
| 225 to 228 | Cc1cc(C2C(=O)Oc3c2cc(C(C)(C)C)cc3C(C)(C)C)cc(C)c1O (stereo unspecified) |
| 199 to 200 | CC(C)C(C)(C(N)=O)N1C(=O)c2ccc3ccsc3c2C1=O (stereo unspecified) |
| > 210 | N#Cc1ccc(C=C2CCCN(C(=O)c3ccc(Cl)cc3)C2)cc1 |
| 90 to 94 | Cc1ccc(S(=O)(=O)N(C)SSN(C)S(=O)(=O)c2ccc(C)cc2)cc1 |
| 77 to 78 | CCSc1nc2ccc(N)cc2s1 |
| 235 to 236 | COc1cc2c(cc1OC)-c1cc(Cl)nc(=O)n1CC2 |
| 108 | CCC1(CC)OC(C(=O)O)Oc2ccc(Cl)cc21 (stereo unspecified) |
| 111 to 113 | N#CCCN(N)c1nc2ccccc2s1 |
| 110 to 112 | CCOc1cc2cc(OC)c(OC)cc2c(Cc2ccc(OC)c(OC)c2)n1 |
| 75 to 76 | CCCCCN1C(=O)C(c2ccc3c(c2)OCO3)(c2cc3c(cc2O)OCO3)c2ccccc21 (stereo unspecified) |
